Results as given in PubChem BioAssay (NCI).
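Protocol summary: plate cells (96-well), add compound at 5 concentrations, incubate 48 h, interpolate endpoints linearly. The concentration for 50% growth inhibition is given as GI50. TGI: concentration producing complete growth inhibition.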

Test system: MDA-MB-468 breast
Experiment: DTP human tumour cell line panel, 48 h

Structure (SMILES) | GI50 | TGI
CCc1ccc(CNCC(O)c2ccccc2)cc1 (stereo not given) | 13.2 µM | 28.2 µM
Fc1cnc(NC2CC2)nc1-c1cnc2ccc(N3CCOCC3)cn12 | 0.182 µM | 0.429 µM
O=c1c2ccc3cccc4c(=O)c5ccc6cccc1c6c5-c2c34 | > 50 µM | > 50 µM
O=C1c2ccccc2-c2nnc(-c3ccc(Br)cc3)cc21 | > 100 µM | > 100 µM
CN(C)CCCOc1ccc(OCCCN(C)C)c2c1C(=O)c1ccccc1C2=O | 0.58 µM | 2.95 µM
